Test results from PMC3770654, “Gastric Antimicrobial Peptides Fail to Eradicate Helicobacter pylori Infection Due to Selective Induction and Resistance” (PLoS ONE, 2013).
Where two headings read alike, the source gives them in different places.

What was measured:
[1] = test system: H. pylori KaE1, DSM 9691, DSM 10242 and DSM 21031; test: Radial diffusion assay, four H. pylori strains; assay type: cell-based; conditions: 20 µg peptide per well, 3 days, 37 °C
Experimental: (§1) Additionally to determine inhibition of bacterial growth we performed radial diffusion assays with a modified protocol of the procedure from Robert Lehrer et al.. Briefly, H. pylori was grown on Columbia blood agar (BD, Sparks, USA), suspended in Brain Heart Infusion diluted 1:5 with aqua dest. and plated on an agar containing 20% brain heart infusion with 5% fetal calf serum. Wells with 3 mm diameter were punched into the agar and peptides were applied equivalent to the flow cytometric assay in a concentration of 20 µg per well. The agar plates were incubated for 3 days at 37 °C in a microaerophilic atmosphere with CampyGen.

[2] = test system: H. pylori KaE1, DSM 9691, DSM 10242 and DSM 21031; test: Flow cytometric viability assay with DiBAC4(3), four H. pylori strains; assay type: cell-based; conditions: for depolarized bacteria: all 4 H. pylori strains, 20 µg/ml peptide, Schaedler Broth 1:6, 37°C, 90 minutes, DiBAC4(3)
Experimental: (§2) The clinical isolate H. pylori KaE1 and the reference strains H. pylori DSM 9691, DSM 10242 and DSM 21031 were tested for susceptibility towards defensins, LL37 and elafin (amino acid sequences Table S1). The strain H. pylori DSM 10242 is positive for the virulence factors VacA and CagA. As control strain for antimicrobial activity served the sensitive E. coli ATCC 25922.
(§3) H. pylori strains were cultured on Columbia blood agar at 37 C° for 2 days in a microaerophilic atmosphere with CampyGen (Oxoid, Hampshire, UK). Subsequently the bacteria were suspended in Schaedler Broth (BD, Sparks, USA) diluted 1:6 with aqua dest. for incubation with antimicrobial peptides.
(§4) Bacterial viability after incubation with antimicrobial peptides or biopsy extracts was analyzed with the membrane potential sensitive dye DiBAC4(3) (bis-(1,3-dibutylbarbituric acid) trimethine oxonol) (Invitrogen, Carlsbad, CA, USA) as described previously. Briefly, 1.5x10^6 mid-logarithmic-phase bacteria/ml of H. pylori or E. coli in Schaedler Broth 1:6 were incubated with 20 µg/ml HBD1-4 (Peptide Institute, Osaka, Japan), elafin (Proteo Biotech, Kiel, Germany for FACS analysis and RDA and elafin from Peptide Institute, Osaka for CFU determination), with LL37 (Innovagen, Lund, Sweden) or with 10 µg total protein of antrum biopsy extracts at 37°C. After 90 minutes 1 µg/ml DiBAC4(3) was added to the suspensions and further incubated for 10 minutes. Then, the suspensions were centrifuged with 4500 x g for 10 minutes, pellets resuspended in 300 µl PBS and bacterial fluorescence was analyzed by a FACSCalibur^TM (BD, Sparks, USA), using Cell Quest software (BD, Sparks, USA). In each sample 10000 bacterial events were analyzed for green fluorescence and the antimicrobial activity was determined as percentage of depolarized, fluorescent bacteria. Inhibition of bacterial growth was tested by plating aliquots on Columbia blood agar and incubating at 37 C° for 2 days in a microaerophilic atmosphere with CampyGen (Oxoid, Hampshire, UK). Then colony forming units (CFU) were counted.

H. pylori DMS 9691 = test: Plating on Columbia blood agar with CFU counting; assay type: cell-based; conditions: peptide 20 µg/ml, means of two independent experiments, control 8.85 x 10^5
Experimental: as §3, §4

H. pylori DSM 10242 = test: Plating on Columbia blood agar with CFU counting; assay type: cell-based; conditions: peptide 20 µg/ml, means of two independent experiments, control 6.10 x 10^5
Experimental: as §3, §4

H. pylori DSM 21031 [3] = test: Plating on Columbia blood agar with CFU counting; assay type: cell-based; conditions: peptide 20 µg/ml, means of two independent experiments, control 7.45 x 10^5
Experimental: as §3, §4

H. pylori KaE = test: Plating on Columbia blood agar with CFU counting; assay type: cell-based; conditions: peptide 20 µg/ml, means of two independent experiments, control 1.42 x 10^6
Experimental: as §3, §4

E. coli ATCC 25922 [4] = test: Flow cytometric viability assay with membrane potential sensitive dye DiBAC4(3); assay type: cell-based; conditions: for depolarized bacteria: 20 µg/ml peptide, 1.5x10^6 bacteria/ml in Schaedler Broth 1:6, 37°C, 90 minutes, then DiBAC4(3) 10 minutes, 10000 events
Experimental: as §2, §4

P. aeruginosa = test: Killing of P. aeruginosa by elafin (data not shown); assay type: cell-based
E. coli ATCC 25922 [5] = test: Binding of antimicrobial peptides to bacterial cells (flow cytometry, Streptavidin-PE); conditions: 20 µg/ml biotinylated LL37 or 20 µg/ml HBD2 with biotinylated HBD2-antibody, 30 minutes
Experimental: (§5) To investigate whether HBD2 and LL37 bind to the bacterial cell membrane, we incubated E. coli or H. pylori in Schaedler Broth 1:6 with 20 µg/ml biotinylated LL37 (Innovagen, Lund, Sweden) or 20 µg/ml HBD2 (Peptide Institute, Osaka, Japan) for 30 minutes. After centrifugation a biotinylated HBD2-antibody was added to the in PBS resuspended pellet of the HBD2 samples (Peprotech, Hamburg, Germany). Following washing with PBS, binding of biotinylated LL37 or of the HBD2-antibody was detected with Streptavidin-PE (BD Biosciences, Heidelberg, Germany). Suspensions incubated with HBD2 antibody and Streptavidin served as control. Fluorescence 2 of 10 000 events was measured with the FACSCalibur.

H. pylori [6] = test: as above; conditions: 20 µg/ml biotinylated LL37 or 20 µg/ml HBD2 with biotinylated HBD2-antibody, 30 minutes
Experimental: as §5

H. pylori [7] = conditions: cited from earlier work; for growth inhibition: ref 19 Kawauchi et al.
Text: Previously, Hase et al. had tested two H. pylori strains against the antimicrobials HBD1, HBD2 and LL37 and […], one strain tested was resistant to HBD1, while the second strain was sensitive. […] In the study by Hase et al. […] Th ...

H. pylori KaE1 [8] = test: Transmission electron microscopy of peptide-treated bacteria; assay type: cell-based; conditions: H. pylori KaE1, 1.5x10^8 bacteria, 200 µg peptide/ml, 2 hours
Experimental: For electron microscopy 1.5x10^8 bacteria were incubated with 200 µg peptide/ml for 2 hours. Subsequently bacteria were fixed with Karnovsky solution, embedded in agarose, coagulated, cut in blocks and fixed once more in Karnovsky. After post fixation and embedding in glycid ether the specimen were cut with an ultra microtome. Sections of 30 nm were rinsed on copper grids and investigated with a Zeiss LIBRA 120 transmission electron microscope.

H. pylori DSM 21031 [9] = test: Radial diffusion assay; assay type: cell-based; conditions: 20 µg peptide per well, 3 days, 37 °C
Experimental: as §1

H. pylori KaE1 [10] = test: Radial diffusion assay; assay type: cell-based; conditions: 20 µg peptide per well, 3 days, 37 °C
Experimental: as §1

| Substance | zones of inhibition in radial diffusion assay ([1]; all four Helicobacter strains, microaerophilic) | bactericidal effect ([2]; H. pylori, elafin peptides from different companies) | depolarized bacteria [2] | Colony forming units (H. pylori DMS 9691) | Colony forming units (H. pylori DSM 10242) | Colony forming units (H. pylori DSM 21031 [3]) | Colony forming units (H. pylori KaE) | depolarized bacteria (E. coli ATCC 25922 [4]) | bactericidal effect (E. coli ATCC 25922 [4]; E. coli, elafin peptides from different companies) | killing of P. aeruginosa (P. aeruginosa) | binding to the bacterial surface (E. coli ATCC 25922 [5]) | binding to the bacterial surface (H. pylori [6]) | growth in radial diffusion assay ([1]; the two other strains (not KaE1, not DSM 21031)) | growth inhibition (H. pylori [7]; 30 µg/ml HBD2) | growth inhibition (H. pylori [7]; 50 µg/ml HBD2) | effect on bacterial viability (H. pylori [7]; ref 20 Hase et al.) | disintegration of bacterial cells (electron microscopy) (H. pylori KaE1 [8]) | zones of inhibition in radial diffusion assay (H. pylori DSM 21031 [9]) | zones of inhibition in radial diffusion assay (H. pylori KaE1 [10]) |
| --- | --- | --- | --- | --- | --- | --- | --- | --- | --- | --- | --- | --- | --- | --- | --- | --- | --- | --- | --- |
| Ala - Gln - Glu - Pro - Val - Lys - Gly - Pro - Val - Ser - Thr - Lys - Pro - Gly - Ser - Cys - Pro - Ile - Ile - Leu - Ile - Arg - Cys - Ala - Met - Leu - Asn - Pro - Pro - Asn - Arg - Cys - Leu - Lys - Asp - Thr - Asp - Cys - Pro - Gly - Ile - Lys - Lys - Cys - Cys - Glu - Gly - Ser - Cys - Gly - Met - Ala - Cys - Phe - Val - Pro - Gln (disulfide) [Elafin, epithelial antiprotease elafin (PI3), cationic, 4 disulphide bridges; Proteo Biotech or Peptide Institute] | no zones of inhibition | no bactericidal effect | less than 5% | 9.59 x 10^5 CFU/ml | 4.85 x 10^5 CFU/ml | 6.82 x 10^5 CFU/ml | 1.29 x 10^6 CFU/ml | 4% | no bactericidal effect | limited killing | – | – | – | – | – | – | – | – | – |
| Gly - Ile - Gly - Asp - Pro - Val - Thr - Cys - Leu - Lys - Ser - Gly - Ala - Ile - Cys - His - Pro - Val - Phe - Cys - Pro - Arg - Arg - Tyr - Lys - Gln - Ile - Gly - Thr - Cys - Gly - Leu - Pro - Gly - Thr - Lys - Cys - Cys - Lys - Lys - Pro (disulfide) [HBD2, human beta defensin 2, recombinant inducible defensin HBD2 (DEFB4A), Peptide Institute, Osaka] | – | – | less than 5% | 7.90 x 10^5 CFU/ml | 5.92 x 10^5 CFU/ml | 6.07 x 10^5 CFU/ml | 0.89 x 10^6 CFU/ml | 51% | – | – | accumulated on the surface | accumulated on the surface | not influenced | 70% | complete inhibition | no effect on bacterial viability | much less disintegration | small inhibition zones | small inhibition zones |
